Laboratory results from US10160747B2, “Compounds and methods for kinase modulation, and indications therefor” (Plexxikon Inc., priority 2016, dated 2018).

Biological target: T1, BA/F3-FLT3-ITD + D835Y (Homo sapiens, UniProt P36888, D835Y, cells depend on it, form not given)
T1 sequence (P36888 with tags, fused parts or gaps INS600HVDFREYEYD/D835Y): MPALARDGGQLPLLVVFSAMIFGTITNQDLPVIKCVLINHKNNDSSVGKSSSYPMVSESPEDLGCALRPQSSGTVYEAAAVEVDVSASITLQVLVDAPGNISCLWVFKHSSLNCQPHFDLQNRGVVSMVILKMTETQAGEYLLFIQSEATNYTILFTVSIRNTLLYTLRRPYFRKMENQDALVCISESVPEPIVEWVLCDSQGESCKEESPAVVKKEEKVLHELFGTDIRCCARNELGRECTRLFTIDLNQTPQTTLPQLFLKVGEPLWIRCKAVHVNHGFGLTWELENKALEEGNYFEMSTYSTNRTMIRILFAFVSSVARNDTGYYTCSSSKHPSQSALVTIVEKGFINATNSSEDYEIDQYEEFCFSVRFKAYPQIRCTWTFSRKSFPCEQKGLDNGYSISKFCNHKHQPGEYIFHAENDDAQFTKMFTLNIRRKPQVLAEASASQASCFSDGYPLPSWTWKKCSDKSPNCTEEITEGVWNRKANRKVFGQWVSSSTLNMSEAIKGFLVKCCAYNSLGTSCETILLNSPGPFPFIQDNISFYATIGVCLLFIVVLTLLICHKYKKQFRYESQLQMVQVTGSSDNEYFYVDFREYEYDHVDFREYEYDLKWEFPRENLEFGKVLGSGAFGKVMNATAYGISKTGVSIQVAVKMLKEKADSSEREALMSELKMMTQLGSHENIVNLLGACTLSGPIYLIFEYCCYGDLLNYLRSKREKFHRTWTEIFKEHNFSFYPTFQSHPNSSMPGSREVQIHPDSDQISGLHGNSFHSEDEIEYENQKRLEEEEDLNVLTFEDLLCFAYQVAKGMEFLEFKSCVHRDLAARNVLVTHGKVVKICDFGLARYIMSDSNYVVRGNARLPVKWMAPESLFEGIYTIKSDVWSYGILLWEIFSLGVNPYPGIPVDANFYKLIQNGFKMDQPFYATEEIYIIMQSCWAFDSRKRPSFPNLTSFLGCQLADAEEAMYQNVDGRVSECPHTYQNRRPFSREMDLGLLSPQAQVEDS
Assay: Engineered BA/F3 cell growth assay, FLT3 ITD/D835Y
Type: cell-based, murine
Conditions: 3 d growth
In short: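 Murine Ba/F3 cells transfected with full-length FLT3 ITD/D835Y, grown without IL-3 so growth depends on FLT3. Seeded at 1×10^4 cells/well, 8-point 1:3 series to 1 μM top (0.2% DMSO), 3 days at 37 °C. CellTiter-Glo luminescence (ATP) versus concentration gave IC50.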

GI50 | SMILES
0.0001 to 10 µM | CCOc1n[nH]c2ncc(-c3ccc(CC(=O)Nc4cnc(OC)c(C(F)(F)F)c4)cc3)cc12 [Compound P-0213, 2-(4-(3-ethoxy-1H-pyrazolo[3,4-b]pyridin-5-yl)phenyl)-N-(6-methoxy-5-(trifluoromethyl)pyridin-3-yl)acetamide]
0.0001 to 10 µM | COc1ncc(NC(=O)Cc2ccc(-c3cnc4[nH]c(C#CC(C)(C)O)cc4c3)cc2)cc1C(F)(F)F [Compound P-0214, 2-(4-(2-(3-hydroxy-3-methylbut-1-yn-1-yl)-1H-pyrrolo[2,3-b]pyridin-5-yl)phenyl)-N-(6-methoxy-5-(trifluoromethyl)pyridin-3-yl)acetamide]
0.0001 to 10 µM | COc1ncc(NC(=O)Cc2ccc(-c3cnc4[nH]nc(NC(=O)C(F)(F)F)c4c3)cc2)cc1C(F)(F)F [Compound P-0215, 2,2,2-trifluoro-N-[5-[4-[2-[[6-methoxy-5-(trifluoromethyl)-3-pyridyl]amino]-2-oxo-ethyl]phenyl]-1H-pyrazolo[3,4-b]pyridin-3-yl]acetamide]
0.0001 to 10 µM | COc1ncc(NC(=O)Cc2ccc(-c3cnc4[nH]nc(N)c4c3)cc2)cc1C(F)(F)F [Compound P-0216, 2-(4-(3-amino-1H-pyrazolo[3,4-b]pyridin-5-yl)phenyl)-N-(6-methoxy-5-(trifluoromethyl)pyridin-3-yl)acetamide]
0.0001 to 10 µM | CCOc1n[nH]c2ncc(-c3ccc(CC(=O)Nc4cnc(C)c(C(F)(F)F)c4)cc3)cc12 [Compound P-0217, 2-[4-(3-ethoxy-1H-pyrazolo[3,4-b]pyridin-5-yl)phenyl]-N-[6-methyl-5-(trifluoromethyl)-3-pyridyl]acetamide]
0.0001 to 10 µM | COc1n[nH]c2ncc(-c3ccc(CC(=O)Nc4cnc(C)c(C(F)(F)F)c4)cc3)cc12 [Compound P-0218, 2-[4-(3-methoxy-1H-pyrazolo[3,4-b]pyridin-5-yl)phenyl]-N-[6-methyl-5-(trifluoromethyl)-3-pyridyl]acetamide]
0.0001 to 10 µM | COc1ncc(NC(=O)Cc2ccc(-c3cnc4[nH]c(C#CC(C)(C)C)cc4c3)cc2)cc1C(F)(F)F [Compound P-0219, 2-[4-[2-(3,3-dimethylbut-1-ynyl)-1H-pyrrolo[2,3-b]pyridin-5-yl]phenyl]-N-[6-methoxy-5-(trifluoromethyl)-3-pyridyl]acetamide]
0.0001 to 10 µM | Cc1ncc(NC(=O)Cc2ccc(-c3cnc4[nH]c(C#CC(C)(C)O)cc4c3)cc2)cc1C(F)(F)F [Compound P-0220, 2-[4-[2-(3-hydroxy-3-methyl-but-1-ynyl)-1H-pyrrolo[2,3-b]pyridin-5-yl]phenyl]-N-[6-methyl-5-(trifluoromethyl)-3-pyridyl]acetamide]
0.0001 to 10 µM | COc1ncc(NC(=O)Cc2ccc(-c3cnc(Nc4cn[nH]c4C)nc3)cc2)cc1C(F)(F)F [Compound P-0221, N-[6-methoxy-5-(trifluoromethyl)-3-pyridyl]-2-[4-[2-[(5-methyl-1H-pyrazol-4-yl)amino]pyrimidin-5-yl]phenyl]acetamide]
0.0001 to 10 µM | COCCn1cc(Nc2ncc(-c3ccc(CC(=O)Nc4cc(C(F)(F)F)ccn4)cc3)cn2)cn1 [Compound P-0222, 2-[4-[2-[[1-(2-methoxyethyl)pyrazol-4-yl]amino]pyrimidin-5-yl]phenyl]-N-[4-(trifluoromethyl)-2-pyridyl]acetamide]
0.0001 to 10 µM | COc1ncc(NC(=O)Cc2ccc(-c3cnc4[nH]c(C#Cc5cncn5C)cc4c3)cc2)cc1C(F)(F)F [Compound P-0227, N-[6-methoxy-5-(trifluoromethyl)-3-pyridyl]-2-[4-[2-[2-(3-methylimidazol-4-yl)ethynyl]-1H-pyrrolo[2,3-b]pyridin-5-yl]phenyl]acetamide]
0.0001 to 10 µM | Cc1nn(C)cc1Nc1ncc(-c2ccc(CC(=O)Nc3cnc(C)c(C(F)(F)F)c3)cc2)cn1 [Compound P-0228, 2-[4-[2-[(1,3-dimethylpyrazol-4-yl)amino]pyrimidin-5-yl]phenyl]-N-[6-methyl-5-(trifluoromethyl)-3-pyridyl]acetamide]
0.0001 to 10 µM | Cc1ncc(NC(=O)Cc2ccc(-c3cnc(Nc4cnn(C)c4C)nc3)cc2)cc1C(F)(F)F [Compound P-0229, 2-[4-[2-[(1,5-dimethylpyrazol-4-yl)amino]pyrimidin-5-yl]phenyl]-N-[6-methyl-5-(trifluoromethyl)-3-pyridyl]acetamide]
0.0001 to 10 µM | COc1ncc(NC(=O)Cc2ccc(-c3cnc4[nH]nc(Cl)c4c3)cc2)cc1C(F)(F)F [Compound P-0230, 2-[4-(3-chloro-1H-pyrazolo[3,4-b]pyridin-5-yl)phenyl]-N-[6-methoxy-5-(trifluoromethyl)-3-pyridyl]acetamide]
0.0001 to 10 µM | O=C(Cc1ccc(-c2cnc(Nc3cnn(C4CC4)c3)nc2)cc1)Nc1cncc(C(F)(F)F)c1 [Compound P-0231, 2-[4-[2-[(1-cyclopropylpyrazol-4-yl)amino]pyrimidin-5-yl]phenyl]-N-[5-(trifluoromethyl)-3-pyridyl]acetamide]
0.0001 to 10 µM | Cc1ncc(NC(=O)Cc2ccc(-c3cnc(Nc4cnn(C5CC5)c4)nc3)cc2)cc1C(F)(F)F [Compound P-0232, 2-[4-[2-[(1-cyclopropylpyrazol-4-yl)amino]pyrimidin-5-yl]phenyl]-N-[6-methyl-5-(trifluoromethyl)-3-pyridyl]acetamide]
0.0001 to 10 µM | O=C(Cc1ccc(-c2cnc(Nc3cnn(C4CC4)c3)nc2)cc1)Nc1cnc(Cl)c(C(F)(F)F)c1 [Compound P-0233, N-[6-chloro-5-(trifluoromethyl)-3-pyridyl]-2-[4-[2-[(1-cyclopropylpyrazol-4-yl)amino]pyrimidin-5-yl]phenyl]acetamide]
0.0001 to 10 µM | COc1ncc(NC(=O)Cc2ccc(-c3cnc(Nc4cnn(C5CC5)c4)nc3)cc2)cc1C(F)(F)F [Compound P-0234, 2-[4-[2-[(1-cyclopropylpyrazol-4-yl)amino]pyrimidin-5-yl]phenyl]-N-[6-methoxy-5-(trifluoromethyl)-3-pyridyl]acetamide]
0.0001 to 10 µM | O=C(Cc1ccc(-c2cnc(Nc3cnn(C4CC4)c3)nc2)cc1)Nc1ccc(C(F)(F)F)nc1 [Compound P-0235, 2-[4-[2-[(1-cyclopropylpyrazol-4-yl)amino]pyrimidin-5-yl]phenyl]-N-[6-(trifluoromethyl)-3-pyridyl]acetamide]
0.0001 to 10 µM | O=C(Cc1ccc(-c2cnc(Nc3cnn(C4CC4)c3)nc2)cc1)Nc1ccc(C(F)(F)F)cn1 [Compound P-0236, 2-[4-[2-[(1-cyclopropylpyrazol-4-yl)amino]pyrimidin-5-yl]phenyl]-N-[5-(trifluoromethyl)-2-pyridyl]acetamide]
0.0001 to 10 µM | O=C(Cc1ccc(-c2cnc(Nc3cnn(C4CC4)c3)nc2)cc1)Nc1cc(C(F)(F)F)ccn1 [Compound P-0237, 2-[4-[2-[(1-cyclopropylpyrazol-4-yl)amino]pyrimidin-5-yl]phenyl]-N-[4-(trifluoromethyl)-2-pyridyl]acetamide]
0.0001 to 10 µM | O=C(Cc1ccc(-c2cnc(Nc3cnn(C4CC4)c3)nc2)cc1F)Nc1cncc(C(F)(F)F)c1 [Compound P-0238, 2-[4-[2-[(1-cyclopropylpyrazol-4-yl)amino]pyrimidin-5-yl]-2-fluoro-phenyl]-N-[5-(trifluoromethyl)-3-pyridyl]acetamide]
0.0001 to 10 µM | Cc1ncc(NC(=O)Cc2ccc(-c3cnc(Nc4cnn(C5CC5)c4)nc3)cc2F)cc1C(F)(F)F [Compound P-0239, 2-[4-[2-[(1-cyclopropylpyrazol-4-yl)amino]pyrimidin-5-yl]-2-fluoro-phenyl]-N-[6-methyl-5-(trifluoromethyl)-3-pyridyl]acetamide]
0.0001 to 10 µM | O=C(Cc1ccc(-c2cnc(Nc3cnn(C4CC4)c3)nc2)cc1F)Nc1cnc(Cl)c(C(F)(F)F)c1 [Compound P-0240, N-[6-chloro-5-(trifluoromethyl)-3-pyridyl]-2-[4-[2-[(1-cyclopropylpyrazol-4-yl)amino]pyrimidin-5-yl]-2-fluoro-phenyl]acetamide]
0.0001 to 10 µM | COc1ncc(NC(=O)Cc2ccc(-c3cnc(Nc4cnn(C5CC5)c4)nc3)cc2F)cc1C(F)(F)F [Compound P-0241, 2-[4-[2-[(1-cyclopropylpyrazol-4-yl)amino]pyrimidin-5-yl]-2-fluoro-phenyl]-N-[6-methoxy-5-(trifluoromethyl)-3-pyridyl]acetamide]
0.0001 to 10 µM | O=C(Cc1ccc(-c2cnc(Nc3cnn(C4CC4)c3)nc2)cc1F)Nc1ccc(C(F)(F)F)nc1 [Compound P-0242, 2-[4-[2-[(1-cyclopropylpyrazol-4-yl)amino]pyrimidin-5-yl]-2-fluoro-phenyl]-N-[6-(trifluoromethyl)-3-pyridyl]acetamide]
